{"source": "patent US20020168325A1", "about": "“NOS inhibitors for treatment of wrinkles” (priority 2001, published 2002)", "key": {"[1]": {"tested_on": "ears of female Balb/C mice", "assay": "Ear swelling response (skin irritation from topical application)", "type": "in vivo", "procedure": "To examine the potential for irritation from topical application of a NOS inhibitor to the skin, measurements of ear swelling response were performed as follows: The thickness of both ears of each of three female Balb/C mice, 10 weeks of age, was measured with a thickness gage (Mitsutoyo Corp.). Ten microliters of 1% L-NAME (L-N^G-nitro-arginine methyl ester) in 70% ethanol in water was applied to each right ear, and 10 microliters of 70% ethanol in water was applied to each left ear as a control. Ear thickness was monitored over two consecutive days following administration of the solutions."}, "[2]": {"tested_on": "back skin of mice (HR-1 hairless strain)", "assay": "Wrinkle formation caused by UVB exposure, analysis of back skin replicas (Wrinkle Analyzer 3D Pro)", "type": "in vivo", "text": "The effect of a compound on the formation or appearance of wrinkles can be evaluated qualitatively, e.g., by visual inspection, or quantitatively, e.g., by computer assisted measurements of wrinkle morphology. Preferably, wrinkle morphology is quantitatively analyzed. Examples of quantitative methods for measuring wrinkles include, but are not limited to, the optical cut technique employing a laser beam, as proposed by Hoshino (1992) Pixel 45:121, herein incorporated by reference; or methods which analyze three-dimensional skin replicas, e.g., the Shiseido Wrinkle Analyzer 3D Pro system (Takasu et al. (1996) J Soc Cosmet Chem Japan 29:394-405; Japanese Published Patent Application No. 07-113623, published May 2, 1995 (corresponds to U.S. patent application Ser. No. 08/364,346)). The SILFLO (Flexico Development Ltd.) system or a similar system can be used to take a replica of the skin. Irregularities on the surface of the skin replica, i.e., wrinkles, are analyzed, e.g., with the Shiseido Wrinkle Analyzer 3D Pro or a similar system, to provide three-dimensional shape data from the heights at points on a two-dimensional plane corresponding to the skin. According to the three-dimensional data, the length, width, depth, area, and volume of each wrinkle is calculated. According to the parameters for regular and fine wrinkles described herein, different classes of wrinkles, including the subclasses of regular and fine wrinkles, can thus be individually recognized and scored.\nTo examine the effect of L-NAME on wrinkle formation, wrinkle measurements experiments were performed on the back skin of mice (HR-1 hairless strain, female, 5 weeks of age, n=3) by taking and analyzing skin replicas.\nMice were exposed to UVB irradiation three times a week for ten weeks beginning with 0.3mW/cm^2. The total exposure was 4.662J/cm^2. 100 microliters of 1% L-NAME in 70% ethanol, or 70% ethanol as a control, was applied after each UVB irradiation. Three days after the final UVB irradiation, skin replicas of the dorsal area were taken by means of SILFLO (Flexico Development Ltd.). Replicas were evaluated by the Wrinkle Analyzer 3D Pro developed by Shiseido (essentially as described in Takasu et al. (1996) J Soc Cosmet Chem Japan 29:394-405). Wrinkdle volume and width of regular and fine wrinkles was calculated through three-dimensional data."}, "[3]": {"details": "UVB three times a week for ten weeks, 100 microliters of 1% L-NAME in 70% ethanol after each irradiation, replicas three days after final UVB"}}, "note": "Entries after “also recorded” stand apart in the source; their conditions may differ.", "data": [{"smiles": "COC(=O)[C@@H](N)CCCNC(=N)N[N+](=O)[O-]", "note": "[L-NAME, L-N^G-nitro-arginine methyl ester]", "values": [{"measurement": "Difference in ear thickness between control and treated ears", "setting": "[1]; 1% L-NAME in 70% ethanol vs 70% ethanol control, over two days", "result": "no statistically significant difference in ear thickness"}, {"measurement": "Skin inflammation / other signs of irritation (redness, flaking)", "setting": "[1]; 1% L-NAME in 70% ethanol, topical on ear", "result": "did not cause skin inflammation; also recorded: no other signs of skin irritation or inflammation"}, {"measurement": "Ear thickness DAY 0, AVE ± SD", "setting": "[1]; Day 0, right ears, 10 microliters of 1% L-NAME in 70% ethanol topical, three female Balb/C mice", "result": "26.33 ± 0.58", "unit": "× 0.01 mm"}, {"measurement": "Ear thickness DAY 1, AVE ± SD", "setting": "[1]; Day 1 after application, right ears, 10 microliters of 1% L-NAME in 70% ethanol topical", "result": "25.33 ± 0.58", "unit": "× 0.01 mm"}, {"measurement": "Ear thickness DAY 2, AVE ± SD", "setting": "[1]; Day 2 after application, right ears, 10 microliters of 1% L-NAME in 70% ethanol topical", "result": "26.33 ± 0.58", "unit": "× 0.01 mm"}, {"measurement": "Effect on fine wrinkle formation caused by UVB exposure", "setting": "[2]; 1% L-NAME in 70% ethanol on back skin of mice, compared to control mice", "result": "prevented the formation of fine wrinkles; also recorded: reduction in fine wrinkles"}, {"measurement": "Wrinkle volume, fine wrinkles", "setting": "[2]; [3]", "result": "175,295 pixels"}, {"measurement": "Wrinkle volume, regular wrinkles", "setting": "[2]; [3]", "result": "896,863 pixels"}, {"measurement": "Wrinkle volume, total (regular + fine)", "setting": "[2]; [3]", "result": "1,072,158 pixels"}]}]}
